Assay results reported in patent US20040254238A1, “Bone growth stimulation with NO/statin and other NO modulating combinations” (OSTEOSCREEN, priority 2003, published 2004).

Assays:
neonatal murine calvaria = details: L-arginine alone, 20 μM
Protocol: Selected compounds and appropriate controls were assayed in vitro (ex vivo) for bone formation activity (described above in “In Vitro Neonatal Mouse Calvaria Assay”). Histomorphometrical assessments of ex vivo calvaria were carried out using an OsteoMetrics bone morphometry measurement program, according to the manufacturer's instructions. Measurements were determined using either a 10- or 20-fold objective with a standard point counting eyepiece graticule.

three month old S-D rats = assay: Bone mineral density in rats treated orally by gavage for 16 weeks; type: in vivo, rat; details: oral gavage, S-D rats (FIG. 4 lower panel)
Protocol: Statin equivalence: 100 mg/kg/day=0.72 mg/day; 400 mg/kg/day=2.9 mg/day; and 800 mg/kg/day=5.8 mg/day.
In this experiment, experimental groups of three month old S-D rats were used. Food was removed from the cages 6 hours prior to dosing. The animals were then treated orally by gavage once a day with vehicle (0.5% methylcellulose), lovastatin, or OsteoPure™ (lovastatin-containing reduced rice extract). OsteoPure™ was administered at 100, 400, or 800 mg/kg/day five days a week for 16 weeks. The statin equivalence in OsteoPure™ is 100 mg/kg/day=0.72 mg/day; 400 mg/kg/day=2.9 mg/day; and 800 mg/kg/day=5.8 mg/day. Rats were weighed weekly. Bone mineral density (BMD) were analyzed every four weeks. In the upper panel, the bone mineral densities (BMDs) are shown. In the lower panel, the % change in BMDs of the experimental over the 16 weeks is shown. […] This trend is confirmed in the long term analysis of percent change in BMDs shown in the lower panel.

osteoprogenitor cells = details: cells treated with dexamethasone in vitro; Cui et al. 1996; cited from earlier work
bone resorption = details: lipid clearing agents; Wang et al. 1995; cited from earlier work
bone mass = details: Horiuchi et al. 2001, Kinoshita et al. 2000; cited from earlier work
rats = details: injected locally into the subcutaneous tissues of rats; Wozney 1992; cited from earlier work

For `N=C(N)NCCC[C@H](N)C(=O)O` [L-arginine], the bone formation (neonatal murine calvaria) was “induces bone formation”.

In the case of `CC[C@H](C)C(=O)O[C@H]1C[C@@H](C)C=C2C=C[C@H](C)[C@H](CC[C@@H]3C[C@@H](O)CC(=O)O3)[C@H]21` [lovastatin], the “percent change in BMDs over 16 weeks, co-administered with L-arginine relative to the agent alone” value (three month old S-D rats) is listed as “greater increase in BMDs”, the “triglyceride vesicles in osteoprogenitor cells” value (osteoprogenitor cells) is listed as “diminished triglyceride vesicles” and the “bone resorption induced by steroid administration” value (bone resorption) is listed as “inhibit bone resorption induced by steroid administration”.

For `CC(=O)CCCCn1c(=O)c2c(ncn2C)n(C)c1=O` [pentoxifylline], the bone mass (bone mass) is given as “increase bone mass by promoting bone formation”.

For `COc1ccc(C2CNC(=O)C2)cc1OC1CCCC1` (stereo not shown) [rolipram], the bone mass (bone mass) is given as “increase bone mass by promoting bone formation”.

B1: BMP-4: recombinant bone morphogenic protein (protein, UniProt P12644 293-408, looked up)
Bone morphogenetic protein 4: SPKHHSQRARKKNKNCRRHSLYVDFSDVGWNDWIVAPPGYQAFYCHGDCPFPLADHLNSTNHAIVQTLVNSVNSSIPKACCVPTELSAISMLYLDEYDKVVLKNYQEMVVEGCGCR
For B1, the new bone formation (rats) is given as “can induce new bone formation”.
